# From ChEMBL document CHEMBL1137452, “Synthesis of disulfide esters of dialkylaminocarbothioic acid as potent, non-detergent spermicidal agents” (Bioorg Med Chem, 2007)
# Organism: Homo sapiens
# Test: Spermicidal activity against human spermatozoa
# Format: functional
# Details: not given
row,Compound,MEC
1,O=C(SCC(CN1CCCC1)SSC(CSC(=O)N1CCCCC1)CN1CCCC1)N1CCCCC1 (racemic),0.002 %w/v
2,O=C(SCC(CN1CCCC1)SSC(CSC(=O)N1CCCC1)CN1CCCC1)N1CCCC1 (racemic),0.002 %w/v
3,O=C(SCC(CN1CCCCC1)SSC(CSC(=O)N1CCCCC1)CN1CCCCC1)N1CCCCC1 (racemic),0.05 %w/v
4,CN1CCN(CC(CSC(=O)N2CCCCC2)SSC(CSC(=O)N2CCCCC2)CN2CCN(C)CC2)CC1 (racemic),0.05 %w/v
5,O=C(SCC(CN1C=CC=CC=C1)SSC(CSC(=O)N1CCOCC1)CN1C=CC=CC=C1)N1CCOCC1 (racemic),0.05 %w/v

# Test system: Candida albicans
# Test: Antifungal activity against Candida albicans after 48 hrs by broth micro dilution technique
# Format: functional, organism-based
# Details: not given
Compound,IC50,MIC
O=C(SCC(CN1CCCCC1)SSC(CSC(=O)N1CCCCC1)CN1CCCCC1)N1CCCCC1 (racemic),> 50 µg/mL,> 50 µg/mL
O=C(SCC(CN1C=CC=CC=C1)SSC(CSC(=O)N1CCOCC1)CN1C=CC=CC=C1)N1CCOCC1 (racemic),> 50 µg/mL,> 50 µg/mL

# The next lines start with the values.
IC50,MIC,Compound
47 µg/mL,> 50 µg/mL,O=C(SCC(CN1CCCC1)SSC(CSC(=O)N1CCCCC1)CN1CCCC1)N1CCCCC1 (racemic)
43 µg/mL,> 50 µg/mL,O=C(SCC(CN1CCCC1)SSC(CSC(=O)N1CCCC1)CN1CCCC1)N1CCCC1 (racemic)
47 µg/mL,50 µg/mL,CN1CCN(CC(CSC(=O)N2CCCCC2)SSC(CSC(=O)N2CCCCC2)CN2CCN(C)CC2)CC1 (racemic)

# Test system: Candida albicans
# Test: Antifungal activity against Candida albicans MTCC 183 after 48 hrs by broth micro dilution technique
# Format: functional, organism-based
# Details: MTCC 183, 48 h
Compound,IC50,MIC
O=C(SCC(CN1CCCCC1)SSC(CSC(=O)N1CCCCC1)CN1CCCCC1)N1CCCCC1 (racemic),> 50 µg/mL,> 50 µg/mL
O=C(SCC(CN1C=CC=CC=C1)SSC(CSC(=O)N1CCOCC1)CN1C=CC=CC=C1)N1CCOCC1 (racemic),25 µg/mL,50 µg/mL

# The remaining lines, values ahead:
IC50,MIC,Compound
32 µg/mL,50 µg/mL,O=C(SCC(CN1CCCC1)SSC(CSC(=O)N1CCCCC1)CN1CCCC1)N1CCCCC1 (racemic)
29 µg/mL,50 µg/mL,O=C(SCC(CN1CCCC1)SSC(CSC(=O)N1CCCC1)CN1CCCC1)N1CCCC1 (racemic)
> 50 µg/mL,50 µg/mL,CN1CCN(CC(CSC(=O)N2CCCCC2)SSC(CSC(=O)N2CCCCC2)CN2CCN(C)CC2)CC1 (racemic)

# Test system: Candida albicans
# Test: Antifungal activity against Candida albicans MTCC 1346 after 48 hrs by broth micro dilution technique
# Format: functional, organism-based
# Details: MTCC 1346, 48 h
Compound,IC50,MIC
O=C(SCC(CN1CCCCC1)SSC(CSC(=O)N1CCCCC1)CN1CCCCC1)N1CCCCC1 (racemic),> 50 µg/mL,> 50 µg/mL
O=C(SCC(CN1C=CC=CC=C1)SSC(CSC(=O)N1CCOCC1)CN1C=CC=CC=C1)N1CCOCC1 (racemic),35 µg/mL,50 µg/mL

# Further lines, results first:
IC50,MIC,Compound
48 µg/mL,50 µg/mL,O=C(SCC(CN1CCCC1)SSC(CSC(=O)N1CCCCC1)CN1CCCC1)N1CCCCC1 (racemic)
> 50 µg/mL,> 50 µg/mL,O=C(SCC(CN1CCCC1)SSC(CSC(=O)N1CCCC1)CN1CCCC1)N1CCCC1 (racemic)
> 50 µg/mL,50 µg/mL,CN1CCN(CC(CSC(=O)N2CCCCC2)SSC(CSC(=O)N2CCCCC2)CN2CCN(C)CC2)CC1 (racemic)

# Test system: Candida albicans
# Test: Antifungal activity against Candida albicans ATCC 10231 after 48 hrs by broth micro dilution technique
# Format: functional, organism-based
# Details: ATCC 10231, 48 h
Compound,IC50,MIC
O=C(SCC(CN1CCCCC1)SSC(CSC(=O)N1CCCCC1)CN1CCCCC1)N1CCCCC1 (racemic),> 50 µg/mL,> 50 µg/mL
O=C(SCC(CN1C=CC=CC=C1)SSC(CSC(=O)N1CCOCC1)CN1C=CC=CC=C1)N1CCOCC1 (racemic),> 50 µg/mL,> 50 µg/mL

# The remaining lines, values ahead:
IC50,MIC,Compound
48 µg/mL,50 µg/mL,O=C(SCC(CN1CCCC1)SSC(CSC(=O)N1CCCCC1)CN1CCCC1)N1CCCCC1 (racemic)
> 50 µg/mL,> 50 µg/mL,O=C(SCC(CN1CCCC1)SSC(CSC(=O)N1CCCC1)CN1CCCC1)N1CCCC1 (racemic)
> 50 µg/mL,50 µg/mL,CN1CCN(CC(CSC(=O)N2CCCCC2)SSC(CSC(=O)N2CCCCC2)CN2CCN(C)CC2)CC1 (racemic)

# Test system: Pichia kudriavzevii
# Test: Antifungal activity against Candida krusei ATCC 6258 after 48 hrs by broth micro dilution technique
# Format: functional, organism-based
# Details: ATCC 6258, 48 h
Compound,IC50,MIC
O=C(SCC(CN1CCCCC1)SSC(CSC(=O)N1CCCCC1)CN1CCCCC1)N1CCCCC1 (racemic),> 50 µg/mL,> 50 µg/mL
O=C(SCC(CN1C=CC=CC=C1)SSC(CSC(=O)N1CCOCC1)CN1C=CC=CC=C1)N1CCOCC1 (racemic),32 µg/mL,50 µg/mL

# Continued, values first:
IC50,MIC,Compound
30 µg/mL,50 µg/mL,O=C(SCC(CN1CCCC1)SSC(CSC(=O)N1CCCCC1)CN1CCCC1)N1CCCCC1 (racemic)
33 µg/mL,50 µg/mL,O=C(SCC(CN1CCCC1)SSC(CSC(=O)N1CCCC1)CN1CCCC1)N1CCCC1 (racemic)
35 µg/mL,50 µg/mL,CN1CCN(CC(CSC(=O)N2CCCCC2)SSC(CSC(=O)N2CCCCC2)CN2CCN(C)CC2)CC1 (racemic)

# Test system: Candida parapsilosis
# Test: Antifungal activity against Candida parapsilosis ATCC 22019 after 48 hrs by broth micro dilution technique
# Format: functional, organism-based
# Details: Lodderomyces parapsilosis, ATCC 22019, 48 h
Compound,IC50,MIC
O=C(SCC(CN1CCCCC1)SSC(CSC(=O)N1CCCCC1)CN1CCCCC1)N1CCCCC1 (racemic),> 50 µg/mL,> 50 µg/mL
O=C(SCC(CN1C=CC=CC=C1)SSC(CSC(=O)N1CCOCC1)CN1C=CC=CC=C1)N1CCOCC1 (racemic),39 µg/mL,50 µg/mL

# Continued, values first:
IC50,MIC,Compound
48 µg/mL,50 µg/mL,O=C(SCC(CN1CCCC1)SSC(CSC(=O)N1CCCCC1)CN1CCCC1)N1CCCCC1 (racemic)
31 µg/mL,50 µg/mL,O=C(SCC(CN1CCCC1)SSC(CSC(=O)N1CCCC1)CN1CCCC1)N1CCCC1 (racemic)
40 µg/mL,50 µg/mL,CN1CCN(CC(CSC(=O)N2CCCCC2)SSC(CSC(=O)N2CCCCC2)CN2CCN(C)CC2)CC1 (racemic)

# Test system: Candida albicans
# Test: Antifungal activity against Candida albicans ATCC 10453 after 48 hrs by broth micro dilution technique
# Format: functional, organism-based
# Details: ATCC 10453, 48 h
Compound,IC50,MIC
O=C(SCC(CN1CCCCC1)SSC(CSC(=O)N1CCCCC1)CN1CCCCC1)N1CCCCC1 (racemic),> 50 µg/mL,> 50 µg/mL
O=C(SCC(CN1C=CC=CC=C1)SSC(CSC(=O)N1CCOCC1)CN1C=CC=CC=C1)N1CCOCC1 (racemic),> 50 µg/mL,> 50 µg/mL

# Results, then the molecule that gave them:
IC50,MIC,Compound
> 50 µg/mL,> 50 µg/mL,O=C(SCC(CN1CCCC1)SSC(CSC(=O)N1CCCCC1)CN1CCCC1)N1CCCCC1 (racemic)
> 50 µg/mL,> 50 µg/mL,O=C(SCC(CN1CCCC1)SSC(CSC(=O)N1CCCC1)CN1CCCC1)N1CCCC1 (racemic)
46 µg/mL,> 50 µg/mL,CN1CCN(CC(CSC(=O)N2CCCCC2)SSC(CSC(=O)N2CCCCC2)CN2CCN(C)CC2)CC1 (racemic)

# Test system: Candida albicans
# Test: Antifungal activity against Candida albicans ATCC 60193 after 48 hrs by broth micro dilution technique
# Format: functional, organism-based
# Details: ATCC 60193, 48 h
Compound,IC50,MIC
O=C(SCC(CN1CCCCC1)SSC(CSC(=O)N1CCCCC1)CN1CCCCC1)N1CCCCC1 (racemic),> 50 µg/mL,> 50 µg/mL
O=C(SCC(CN1C=CC=CC=C1)SSC(CSC(=O)N1CCOCC1)CN1C=CC=CC=C1)N1CCOCC1 (racemic),42 µg/mL,50 µg/mL

# Now from value to molecule:
IC50,MIC,Compound
41 µg/mL,> 50 µg/mL,O=C(SCC(CN1CCCC1)SSC(CSC(=O)N1CCCCC1)CN1CCCC1)N1CCCCC1 (racemic)
> 50 µg/mL,> 50 µg/mL,O=C(SCC(CN1CCCC1)SSC(CSC(=O)N1CCCC1)CN1CCCC1)N1CCCC1 (racemic)
43 µg/mL,> 50 µg/mL,CN1CCN(CC(CSC(=O)N2CCCCC2)SSC(CSC(=O)N2CCCCC2)CN2CCN(C)CC2)CC1 (racemic)

# Test system: Candida albicans
# Test: Antifungal activity against Candida albicans ATCC 66027 after 48 hrs by broth micro dilution technique
# Format: functional, organism-based
# Details: ATCC 66027, 48 h
Compound,IC50,MIC
O=C(SCC(CN1CCCCC1)SSC(CSC(=O)N1CCCCC1)CN1CCCCC1)N1CCCCC1 (racemic),> 50 µg/mL,> 50 µg/mL
O=C(SCC(CN1C=CC=CC=C1)SSC(CSC(=O)N1CCOCC1)CN1C=CC=CC=C1)N1CCOCC1 (racemic),> 50 µg/mL,> 50 µg/mL

# Second part, the molecule after the results:
IC50,MIC,Compound
43 µg/mL,> 50 µg/mL,O=C(SCC(CN1CCCC1)SSC(CSC(=O)N1CCCCC1)CN1CCCC1)N1CCCCC1 (racemic)
42 µg/mL,> 50 µg/mL,O=C(SCC(CN1CCCC1)SSC(CSC(=O)N1CCCC1)CN1CCCC1)N1CCCC1 (racemic)
40 µg/mL,> 50 µg/mL,CN1CCN(CC(CSC(=O)N2CCCCC2)SSC(CSC(=O)N2CCCCC2)CN2CCN(C)CC2)CC1 (racemic)
